Measurements published in US20020137929A1, “1 - (3-heterocyclylphenyl) isothiourea, -isourea, -guanidine and -amidine herbicidal agents” (Intellectual Property Department, BASF Aktiengesellschaft, priority 1998, published 2002).

Columns and labels:
[1] = system: SAGPY (Arrowhead (Pygmaea)); assay: Preemergence weed control under flooded paddy conditions; type: in vivo, Sagittaria pygmaea; conditions: rated 3-4 weeks after treatment
Outline: (§1)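 Seeds or propagules sown in silt loam kept flooded 1.5-3 cm; compounds in 50/50 acetone/water pipetted into flood water at about 0.0313 to 0.500 kg/ha. Greenhouse; visual 0-9 rating versus untreated control 3-4 weeks after treatment.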

[2] = system: CHEAL (Lambsquarters, Common); assay: Postemergence herbicidal evaluation; type: in vivo, Chenopodium album
Outline: (§2)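 First, seedlings were raised for around two weeks. Next, test material in 50/50 acetone/water containing 0.5% TWEEN 20 was sprayed through a nozzle at 40 psi, equivalent to about 0.0156–0.500 kg/ha. Finally, after 4–5 weeks in the greenhouse, plants were rated 0–9.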

ORYSAT (Rice, Tebonnet) = assay: Postemergence herbicidal evaluation; type: in vivo, Oryza sativa, (L.) Tebonnet
Outline: as §2

CASOB (Sicklepod) [3] = assay: Postemergence herbicidal evaluation; type: in vivo, Cassia obtusifolia
Outline: as §2

GALAP (Galium) [4] = assay: Postemergence herbicidal evaluation; type: in vivo, Galium aparine
Outline: as §2

SETVI (Foxtail, Green) = assay: Postemergence herbicidal evaluation; type: in vivo, Setaria viridis
Outline: as §2

GALAP (Galium) [5] = assay: Preemergence herbicidal evaluation; type: in vivo, Galium aparine; conditions: rated 4-5 weeks after treatment
Outline: (§3)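 Visual 0-9 rating vs control (stand, vigor, malformation, size, chlorosis, overall appearance), scored 4-5 wk after spraying. Seeded soil cups were treated preemergence with compound in aqueous acetone, ~0.0156-0.500 kg/ha equivalent.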

CYPIR (Rice Flatsedge) = assay: Preemergence weed control under flooded paddy conditions; type: in vivo, Cyperus iria; conditions: rated 3-4 weeks after treatment
Outline: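 Ratings on a 0-9 visual scale cover stand, vigor, malformation, size, chlorosis and overall appearance relative to a control, taken three to four weeks post-treatment. Application was into flood water over freshly sown silt loam at roughly 0.0313 to 0.500 kg/ha.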

ECHCG (Barnyardgrass) = assay: Postemergence herbicidal evaluation; type: in vivo, Echinochloa crus-galli
Outline: as §2

AMBEL (Ragweed, Common) = assay: Postemergence herbicidal evaluation; type: in vivo, Ambrosia artemisifolia
Outline: as §2

[6] = system: GLXMAW (Soybean, Williams); assay: Postemergence herbicidal evaluation; type: in vivo, Glycine max, (L.) Merr. cv Williams
Outline: as §2

CYPSE (Flatsedge) [7] = assay: Postemergence weed control under flooded paddy conditions; type: in vivo, Cyperus serotinus; conditions: postemergence weeds, 3-4 weeks after treatment
Outline: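 Herbicidal effect is judged by eye on a 0–9 scale versus control, 3–4 weeks after dosing. Dosing is into flood water kept 1.5–3 cm over the soil, at about 0.0313–0.500 kg/ha in aqueous/acetone 50/50 v/v, on 3–5 cm weeds and 1.5–2.5-leaf rice seedlings.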

CYPSE (Flatsedge) [8] = assay: Preemergence weed control under flooded paddy conditions; type: in vivo, Cyperus serotinus; conditions: rated 3-4 weeks after treatment
Outline: as §1

CASOB (Sicklepod) [9] = assay: Preemergence herbicidal evaluation; type: in vivo, Cassia obtusifolia; conditions: rated 4-5 weeks after treatment
Outline: as §3

ZEAMX (Corn, Field) = assay: Preemergence herbicidal evaluation; type: in vivo, Zea mays; conditions: rated 4-5 weeks after treatment
Outline: as §3

Cn1c(C(F)(F)F)cc(=O)n(-c2cc(N=C3SCC(=O)N3CC(=O)OC(C)(C)C)c(Cl)cc2F)c1=O [Compound 43, tert-Butyl 2-{{2-chloro-5-[3,6-dihydro-3-methyl-2,6-dioxo-4-(trifluoromethyl)-1(2H)-pyrimidinyl]-4-fluorophenyl}imino}-4-oxo-3-thiazolidineacetate]
Herbicidal rating SAGPY ([1]; 0.0313 kg/ha): 7.0 | Herbicidal rating SAGPY ([1]; 0.0625 kg/ha): 7.0 | Herbicidal rating SAGPY ([1]; 0.1250 kg/ha): 7.0 | Herbicidal rating SAGPY ([1]; 0.2500 kg/ha): 9.0 | Postemergence herbicidal rating CHEAL ([2]; Rate 0.0158 kg/ha): 5.0 | Postemergence herbicidal rating CHEAL ([2]; Rate 0.0315 kg/ha): 9.0 | Postemergence herbicidal rating CHEAL ([2]; Rate 0.0630 kg/ha): 9.0 | Postemergence herbicidal rating ORYSAT (ORYSAT (Rice, Tebonnet); Rate 0.0158 kg/ha): 1.0 | Postemergence herbicidal rating ORYSAT (ORYSAT (Rice, Tebonnet); Rate 0.0315 kg/ha): 2.0 | Postemergence herbicidal rating ORYSAT (ORYSAT (Rice, Tebonnet); Rate 0.0630 kg/ha): 3.0 | Postemergence herbicidal rating CASOB (CASOB (Sicklepod) [3]; Rate 0.0158 kg/ha): 9.0 | Postemergence herbicidal rating CASOB (CASOB (Sicklepod) [3]; Rate 0.0315 kg/ha): 9.0 | Postemergence herbicidal rating CASOB (CASOB (Sicklepod) [3]; Rate 0.0630 kg/ha): 9.0 | Postemergence herbicidal rating GALAP (GALAP (Galium) [4]; Rate 0.0158 kg/ha): 0.0 | Postemergence herbicidal rating GALAP (GALAP (Galium) [4]; Rate 0.0315 kg/ha): 4.0 | Postemergence herbicidal rating GALAP (GALAP (Galium) [4]; Rate 0.0630 kg/ha): 4.0 | Postemergence herbicidal rating SETVI (SETVI (Foxtail, Green); Rate 0.0158 kg/ha): 3.0 | Postemergence herbicidal rating SETVI (SETVI (Foxtail, Green); Rate 0.0315 kg/ha): 3.0 | Postemergence herbicidal rating SETVI (SETVI (Foxtail, Green); Rate 0.0630 kg/ha): 8.0 | Preemergence herbicidal rating GALAP (GALAP (Galium) [5]; rate 0.0156 kg/ha): 0.0 | Preemergence herbicidal rating GALAP (GALAP (Galium) [5]; rate 0.0313 kg/ha): 0.0 | Preemergence herbicidal rating GALAP (GALAP (Galium) [5]; rate 0.0625 kg/ha): 0.0 | Preemergence herbicidal rating GALAP (GALAP (Galium) [5]; rate 0.1250 kg/ha): 9.0 | Preemergence herbicidal rating GALAP (GALAP (Galium) [5]; rate 0.2500 kg/ha): 9.0 | Herbicidal rating CYPIR (CYPIR (Rice Flatsedge); 0.0313 kg/ha): 0.0 | Herbicidal rating CYPIR (CYPIR (Rice Flatsedge); 0.0625 kg/ha): 2.0 | Herbicidal rating CYPIR (CYPIR (Rice Flatsedge); 0.1250 kg/ha): 4.0 | Herbicidal rating CYPIR (CYPIR (Rice Flatsedge); 0.2500 kg/ha): 5.0 | Postemergence herbicidal rating ECHCG (ECHCG (Barnyardgrass); Rate 0.0158 kg/ha): 0.0 | Postemergence herbicidal rating ECHCG (ECHCG (Barnyardgrass); Rate 0.0315 kg/ha): 0.0 | Postemergence herbicidal rating ECHCG (ECHCG (Barnyardgrass); Rate 0.0630 kg/ha): 0.0 | Postemergence herbicidal rating AMBEL (AMBEL (Ragweed, Common); Rate 0.0158 kg/ha): 9.0 | Postemergence herbicidal rating AMBEL (AMBEL (Ragweed, Common); Rate 0.0315 kg/ha): 9.0 | Postemergence herbicidal rating AMBEL (AMBEL (Ragweed, Common); Rate 0.0630 kg/ha): 9.0 | Postemergence herbicidal rating GLXMAW ([6]; Rate 0.0158 kg/ha): 7.5 | Postemergence herbicidal rating GLXMAW ([6]; Rate 0.0315 kg/ha): 7.0 | Postemergence herbicidal rating GLXMAW ([6]; Rate 0.0630 kg/ha): 7.0 | Herbicidal rating CYPSE (CYPSE (Flatsedge) [7]; rate 0.0313 kg/ha): 5.0 | Herbicidal rating CYPSE (CYPSE (Flatsedge) [7]; rate 0.1250 kg/ha): 8.0 | Herbicidal rating CYPSE (CYPSE (Flatsedge) [7]; rate 0.2500 kg/ha): 9.0 | Herbicidal rating CYPSE (CYPSE (Flatsedge) [8]; 0.0313 kg/ha): 5.0 | Herbicidal rating CYPSE (CYPSE (Flatsedge) [8]; 0.0625 kg/ha): 5.0 | Herbicidal rating CYPSE (CYPSE (Flatsedge) [8]; 0.1250 kg/ha): 8.0 | Herbicidal rating CYPSE (CYPSE (Flatsedge) [8]; 0.2500 kg/ha): 9.0 | Preemergence herbicidal rating CASOB (CASOB (Sicklepod) [9]; rate 0.0156 kg/ha): 0.0 | Preemergence herbicidal rating CASOB (CASOB (Sicklepod) [9]; rate 0.0313 kg/ha): 0.0 | Preemergence herbicidal rating CASOB (CASOB (Sicklepod) [9]; rate 0.0625 kg/ha): 0.0 | Preemergence herbicidal rating CASOB (CASOB (Sicklepod) [9]; rate 0.1250 kg/ha): 8.0 | Preemergence herbicidal rating CASOB (CASOB (Sicklepod) [9]; rate 0.2500 kg/ha): 9.0 | Preemergence herbicidal rating ZEAMX (ZEAMX (Corn, Field); rate 0.0156 kg/ha): 0.0 | Preemergence herbicidal rating ZEAMX (ZEAMX (Corn, Field); rate 0.0313 kg/ha): 0.0 | Preemergence herbicidal rating ZEAMX (ZEAMX (Corn, Field); rate 0.0625 kg/ha): 0.0 | Preemergence herbicidal rating ZEAMX (ZEAMX (Corn, Field); rate 0.1250 kg/ha): 3.0 | Preemergence herbicidal rating ZEAMX (ZEAMX (Corn, Field); rate 0.2500 kg/ha): 6.0
